Reference: article PMC10856758, “New Dual Inhibitors of Tyrosyl-DNA Phosphodiesterase 1 and 2 Based on Deoxycholic Acid: Design, Synthesis, Cytotoxicity, and Molecular Modeling” (Molecules, 2024)
Like-named read-outs stand apart in the source and are kept apart here.

Tests used:
[1] = MTT cytotoxicity/antiproliferative assay; settings: human, HeLa cells, HeLa CC50, 72 h of treatment, MTT assay
Method: (§1) Topotecan (TOP1 inhibitor) and etoposide (TOP2 inhibitor) were used to study the effect combined with DCA derivatives on the metabolic activity of cells. […] Topotecan (0.5 µM) and etoposide (5 µM) were used at a concentration with low toxicity (>70% of living cells), selected based on preliminary experiments.
(§2) The cells were seeded in 96-well plates in quadruplicates at 3 × 10^3 cells/well. The cells were grown in Dulbecco’s Modified Eagle—Medium (DMEM) (AppliChem, Darmstadt, Germany) with Antibiotic-Antimycotic (100 IU/mL penicillin, 0.1 μg/mL streptomycin, 0.25 µg/mL amphotericin) (1×) (Gibco, Grand Island, NE, USA) and 10% of fetal bovine serum (Gibco, Grand Island, NE, USA) in a 5% CO2 atmosphere at 37 °C. After the formation of a 50% monolayer, tested compounds were added to the medium, and the cell culture was monitored for 72 h at 37 °C. DCA derivatives were dissolved in 100% DMSO and topotecan/etoposide in water. Control cells were grown in the presence of the same volume of DMSO, those cells with the investigated compound. […] (MTT) solution (10 μL, 5 mg/mL) were added to each well and the cells were incubated for an additional 2 h. Then, the medium was removed from the wells, and 100 μL of iso-propanol was added to dissolve blue formazan crystals formed within live cells; the optical density was measured at test and reference wavelengths (570 nm and 620 nm, respectively) using CLARIOstar fluorimeter (BMG LABTECH, GmbH, Ortenberg, Germany). The experiments were repeated at least three times.

HeLa cells [2] = test: MTT cytotoxicity/antiproliferative assay; settings: low-toxicity concentration, preliminary experiments
Method: as §1, §2

TDP1 [3] = biological target: T1, TDP1 (Homo sapiens, UniProt Q9NUW8); test: TDP1 activity, real-time fluorescence oligonucleotide biosensor (FAM/BHQ1); assay type: biochemical; settings: 1.5 nM TDP1, 50 nM biosensor
T1 sequence (Q9NUW8 whole entry): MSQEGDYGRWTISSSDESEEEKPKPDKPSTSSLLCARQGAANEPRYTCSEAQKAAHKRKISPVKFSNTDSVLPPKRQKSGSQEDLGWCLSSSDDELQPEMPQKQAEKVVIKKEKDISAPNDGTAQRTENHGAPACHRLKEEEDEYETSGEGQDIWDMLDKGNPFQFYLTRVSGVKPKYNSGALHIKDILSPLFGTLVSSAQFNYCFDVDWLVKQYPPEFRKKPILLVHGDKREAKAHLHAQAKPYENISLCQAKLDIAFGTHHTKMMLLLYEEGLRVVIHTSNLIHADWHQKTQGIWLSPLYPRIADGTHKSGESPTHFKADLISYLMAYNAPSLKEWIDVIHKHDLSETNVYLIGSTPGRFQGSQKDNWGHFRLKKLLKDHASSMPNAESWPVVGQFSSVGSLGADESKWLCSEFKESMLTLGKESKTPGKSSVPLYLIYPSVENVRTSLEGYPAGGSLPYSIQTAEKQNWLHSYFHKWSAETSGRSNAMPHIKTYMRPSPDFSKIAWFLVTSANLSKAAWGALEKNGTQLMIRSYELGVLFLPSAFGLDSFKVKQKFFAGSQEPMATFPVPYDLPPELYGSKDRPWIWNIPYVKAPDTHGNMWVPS
From the text: To detect TDP1 activity in real time, we used an oligonucleotide biosensor based on the ability of TDP1 to remove fluorophore quenchers from the 3’ end of DNA [29]. The hexadecamer oligonucleotide carried 5(6)-carboxyfluorescein (FAM) at the 5’ end as a fluorophore and Black Hole Quencher-1 (BHQ1) at the 3’ end as a fluorophore quencher. TDP1 inhibitors prevent the removal of fluorophore quenchers, resulting in a decrease in fluorescence intensity.
TDP1 activity was detected as described in [31]. We measured the fluorescence intensity after quencher cleavage via a fluorophore quencher–coupled DNA oligonucleotide […]. The reaction mixtures contained TDP1 buffer (50 mM Tris, HCl pH 8.0, 50 mM NaCl, and 7 mM β-mercaptoethanol), 50 nM biosensor, and different concentrations of inhibitors. The reaction was triggered by adding TDP1 to a final concentration of 1.5 nM. The fluorophore quencher–coupled DNA oligonucleotide was synthesized in the Laboratory of Nucleic Acid Chemistry at the Institute of Chemical Biology and Fundamental Medicine (Novosibirsk, Russia).
The reaction mixtures were incubated at room temperature in a 96-well plate, and fluorescence was measured using the POLARstar OPTIMA fluorimeter (BMG LABTECH, GmbH, Ortenberg, Germany) every 55 s during the linear phase (here, data from minute 0 to minute 8). […] Data calculation was carried out using the software MARS Data Analysis 2.0 (BMG LABTECH, Ortenberg, Germany).

TDP2 [4] = biological target: T2, TDP2 (Homo sapiens, UniProt O95551); test: Gel-based TDP2 activity assay (removal of 5'-tyrosine, PAGE); assay type: biochemical; settings: for IC50: 200 nM TDP2, 100 nM substrate, 15 min 37 °C; for remaining activity at 500 µM: read-out: TDP2, % (residual activity of TDP2)
T2 sequence (O95551 1-362): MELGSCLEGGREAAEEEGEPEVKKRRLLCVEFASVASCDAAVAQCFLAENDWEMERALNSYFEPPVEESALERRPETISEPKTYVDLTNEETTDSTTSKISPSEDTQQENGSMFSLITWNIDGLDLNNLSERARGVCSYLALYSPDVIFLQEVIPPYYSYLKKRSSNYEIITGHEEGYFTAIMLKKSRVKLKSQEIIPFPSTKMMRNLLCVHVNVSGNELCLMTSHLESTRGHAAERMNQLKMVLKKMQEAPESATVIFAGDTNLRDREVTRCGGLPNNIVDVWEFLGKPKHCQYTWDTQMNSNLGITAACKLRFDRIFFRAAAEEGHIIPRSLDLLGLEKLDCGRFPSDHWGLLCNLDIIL
Method: We investigated the activity against the TDP2 enzyme of compounds 3d–f and 4a–e at 500 μM (Table 1). The basis for testing TDP 2 was its ability to remove a tyrosine residue from the 5’ end of an oligonucleotide substrate. The TDP2 reaction products were separated in a polyacrylamide gel (PAGE) with formamide denaturation.
TDP2 activity was detected as described in [42]. We separated the products of the reaction of cleavage of the tyrosine residue from the 5′-end of the 3e FAM-labeled oligonucleotide in a polyacrylamide gel under denaturing conditions. […] The reaction mixtures contained TDP1 buffer ([…] Tris-HCl pH 8.0, 40 mM NaCl, 1 mM DTT, 0.05 mg/mL BSA (Sigma-Aldrich, St. Luis, MO, USA)), 100 nM oligonucleotide substrate, and inhibitors. The reaction was triggered by adding TDP2 to a final concentration of 200 nM.
The reaction mixtures were incubated for 15 min at 37 °C. The reaction products were analyzed using Typhoon FLA 9500 phosphorimager (GE Healthcare, Boston, MA, USA). Each experiment was carried out in three independent replicates. The data were analyzed with QuantityOne 4.6.7 software.

in vitro = settings: human, HeLa CC50
Method: as §1, §2

TDP1 [5] = biological target: T1, TDP1; parameters: method as in PMID 33221302; settings: earlier DCA derivatives; cited from earlier work
TDP2 [6] = biological target: T2, TDP2; parameters: method as in PMID 35011303; settings: at ~1 mM concentration; cited from earlier work
HeLa cells [7] = test: MTT assay, combination with topotecan or etoposide; assay type: cell-based, human; settings: with 0.5 μM topotecan or 5 µM etoposide
Method: Next, the ability of the selected compounds to enhance the cytotoxic effect of topotecan and etoposide on the HeLa cell line was studied. CC50 values (50% cytotoxic concentration) were also calculated for the test compounds in the presence of topotecan or etoposide at fixed concentrations. For evaluation, three independent MTT assays were performed as described above with test substances in combination with topotecan at a final concentration of 0.5 μM and etoposide at a final concentration of 5 μM per well.
Figure 2 The combined action of compounds 3d–e and 4d–e with 0.5 μM topotecan (Tpc, (A)) and 5 µM etoposide (Eto, (B)) on the survival of HeLa cells. The error bars show standard deviations.

HeLa cells [8] = settings: human, 72 h
Method: as §1, §2

Row | SMILES | IC50 (TDP1 [3]) [µM] | remaining activity at 500 µM (TDP2 [4]; at 500 µM compound) [%] | melting point | CC50 at 72 h (in vitro) [µM] | further results
1 | COc1cc([C@@H]2c3cc4c(cc3[C@@H](O[C@@H]3O[C@@H]5CO[C@@H](C)O[C@H]5[C@H](O)[C@H]3O)[C@H]3COC(=O)[C@H]23)OCO4)cc(OC)c1O [Etoposide] | – | – | – | – | CC50 at 72 h [1]: 6.2 ± 0.6 µM; living cells (HeLa cells [2]; etoposide alone at 5 µM): > 70%
2 | Cc1ccc2[nH]c(SCC3(O)CCC4(C)C(CCC5C4CC(O)C4(C)C(C(C)CCC(=O)O)CCC54)C3)nc2c1 (stereo not shown) [3d] | 25 ± 4 | ~25 | 188.9 °C (dec.) | 63 ± 6 | IC50 (TDP2 [4]): 250 ± 30 µM; TDP2, % (residual activity of TDP2) (TDP2 [4]; at 500 µM compound, 500 µM): 24 ± 5%
3 | COC1CCC2(C)C(CCC3C2CC(OC)C2(C)C(C(C)CCC(=O)Nc4ccc(Br)cc4)CCC32)C1 (stereo not drawn) [3α,12α-bis-methoxy deoxycholic para-bromoanilide] | – | – | – | – | IC50 (TDP1 [5]): 0.27 µM; TDP1 IC50 (TDP1 [5]): submicromolar range
4 | CC(CCC(=O)O)C1CCC2C3CCC4CC(O)(CSc5nc6ccccc6s5)CCC4(C)C3CC(O)C12C (stereo not shown) [3e] | 14 ± 2 | ~2 | 106.2 °C (dec.) | 75 ± 13 | IC50 (TDP2 [4]): 76 ± 13 µM
5 | CC(CCC(=O)O)C1CCC2C3CCC4CC(O)(CSc5nc[nH]n5)CCC4(C)C3CC(O)C12C (stereo not drawn) [3c, 3β,12α-Dihydroxy-3α-((1H-1,2,4-triazol-5-ylthio)methyl)-5β-cholan-24-oic Acid] | 32 ± 4 | ≥ 100 | 95.1 to 98.4 °C | – | –
6 | CC(CCC(=O)NCCc1c[nH]c2ccccc12)C1CCC2C3CCC4CC(OCc5ccccc5)CCC4(C)C3CC(O)C12C (stereo not drawn) [3α-benzyloxy deoxycholic tryptamide] | – | – | – | – | IC50 (TDP1 [5]): 0.24 µM; TDP1 IC50 (TDP1 [5]): submicromolar range; TDP2 residual activity (TDP2 [6]): less than 50%
7 | CC(CCC(=O)O)C1CCC2C3CCC4CC(O)(CSc5ccncc5)CCC4(C)C3CC(O)C12C (stereo not drawn) [3a, 3β,12α-Dihydroxy-3α-((pyrydin-4-ylthio)methyl)-5β-cholan-24-oic Acid] | 22 ± 2 | 92 ± 3 | 119.6 °C (dec.) | – | –
8 | CC(CCC(=O)O)C1CCC2C3CCC4CC(O)(CSc5nccn5C)CCC4(C)C3CC(O)C12C (stereo not drawn) [3b, 3β,12α-Dihydroxy-3α-((1-methyl-1H-imidazol-2-ylthio)methyl)-5β-cholan-24-oic Acid] | 30 ± 7 | ≥ 100 | 119.9 °C (dec.) | – | –
9 | COC(=O)CCC(C)C1CCC2C3CCC4CC(O)(CSc5nc6ccccc6o5)CCC4(C)C3CC(O)C12C (stereo not shown) [4f] | 1.8 ± 0.5 | ≥ 100 | 75 °C (dec.) | – | –
10 | CC[C@@]1(O)C(=O)OCc2c1cc1n(c2=O)Cc2cc3c(CN(C)C)c(O)ccc3nc2-1 [Topotecan] | – | – | – | – | CC50 at 72 h [1]: 0.9 ± 0.1 µM; living cells (HeLa cells [2]; topotecan alone at 0.5 µM): > 70%
11 | COC(=O)CCC(C)C1CCC2C3CCC4CC(O)(CSc5nc6ccccc6s5)CCC4(C)C3CC(O)C12C (stereo not shown) [4e] | 0.63 ± 0.03 | ~49 | 74.5 °C (dec.) | > 75 | combined cytotoxic effect / cell survival under drug combinations (HeLa cells [7]): most noticeable combined cytotoxic effect with both topotecan and etoposide; CC50 (HeLa cells [8]): > 100 µM
12 | COC(=O)CCC(C)C1CCC2C3CCC4CC(O)(CSc5nc6cc(C)ccc6[nH]5)CCC4(C)C3CC(O)C12C (stereo not shown) [4d] | 0.94 ± 0.04 | ~14 | 112.1 °C (dec.) | 50 ± 13 | IC50 (TDP2 [4]): 218 ± 7 µM
